# Read-outs that look alike come from different tables or passages of the source.
# Assays:
# [1] = target: T1, PI3K-α kinase (p110α/p85α) (Homo sapiens, UniProt P42336); assay: Determination of PI3K kinase activity (ADP Transcreener, fluorescence polarization); assay type: biochemical; details: ATP 10 μM
# T1 construct: purchased Invitrogen PV4788
# Method: (§1) The inhibition of PI3K kinase activity by the compound to be tested was determined by the following method. The working concentration of each component in the 25 μL enzyme reaction system was: p110α/p85α 3 ng (or p110β/p85α 60 ng, or p110δ/p85α 90 ng, or p110γ 100 ng), ATP 10 μM, PIP2: PS (Invitrogen PV5100) 30 μM and the DMSO concentration was 2% after addition of the compound to be tested.
# (§2) At the time of the test, the compound to be tested was dissolved in dimethylsulfoxide (DMSO) according to the desired concentration of the experiment. The compound to be tested was gradiently diluted 3 times (0.00046-1 μM, 8 concentration points) with 10% DMSO. 5 μL of the compound to be tested was added to each well of a 96-well plate (Greiner 675076) in duplicate. […] 10 μL of ATP/PIP2: PS and 10 μL of the PI3K enzyme working solution were added to each well in a 96-well plate. The plate was shaken and mixed uniformly, and then incubated at 25° C. for 1 hour. At the same time, ADP and ATP (0.01 μM, 0.02 μM, 0.04 μM, 0.06 μM, 0.08 μM[…], 0.1 μM, 0.25 μM, 0.5 μM, 1 μM, 2 μM, 5 μM, 10 μM, 12 concentration points) were diluted with buffer to set the standard curve. After completion of the enzyme reaction, 25 μL of ADP assay solution (1% 100×ADP tracer, 0.79% ADP antibody and 10% 10× reaction stop solution) was added and incubated at 25° C. for 1 hour. Fluorescence polarization value [mP] of each well was measured with a Perkin Elmer Victor X5 Fluorescent Microplate. The ADP concentration [ADP] was calculated from the ADP/ATP standard curve and the IC50 values were calculated using the XLFit software.
# MCF-7 cells = assay: Cell inhibitory activity detected by MTT assay, MCF-7; assay type: cell-based; details: Homo sapiens, MCF7, 72 h, read-out: MCF-7 cell (IC50/nM), cell growth inhibition
# Method: (§3) The MTT assay procedure and steps were carried out as well known to those skilled in the art, and all the reagents used in the methods were commercially available. The cells in logarithmic growth phase were digested with 0.25% EDTA trypsin (Gibco, 25200-056) and resuspended in fresh medium. 90 μL of the cell suspension was inoculated into a 96-well cell culture plate (BD Faclon 353072) with a suitable cell density and cultured at 37° C. under 5% CO2. After the cells adhered, 10 μL of the test compound at different concentrations (0.0046-10 μM, 8 concentration points) was added and incubated for another 72 h. 10 μL of MTT (5 mg/mL PBS solution) (Sigma, M5655) was added to react for 4 h. The absorbance at 492 nm was measured by using Thermo Scientific Multiskan MK3 microplate reader and IC50 was calculated using XLFIT 5.0 software (UK IDBS). MCF-7 cell culture medium: DMEM medium (Hyclone SH30243.01B+10% FBS (Gibco 10099-141)
# [2] = target: T2, PI3K-β kinase (p110β/p85α) (Homo sapiens, UniProt P42338); assay: Determination of PI3K kinase activity (ADP Transcreener, fluorescence polarization); assay type: biochemical; details: Table 1; ATP 10 μM; read-out: PI3K-β/nM (IC50 of inhibitory activity against PI3K kinase)
# T2 construct: purchased Millipore 14-603
# Method: as §1, §2
# T47D cells = assay: Cell inhibitory activity detected by MTT assay, T47D; assay type: cell-based; details: Homo sapiens, T47D, 72 h, read-out: T47D cell (IC50/nM), cell growth inhibition
# Method: as §3, with “T47D” for “MCF-7”, “RPMI-1640” for “DMEM”, “SH30809.01B)+10%” for “SH30243.01B+10%”
# PI3K-γ kinase (p110γ) = target: T3, PI3K-γ kinase (p110γ) (Homo sapiens, UniProt P48736); assay: Determination of PI3K kinase activity (ADP Transcreener, fluorescence polarization); assay type: biochemical; details: Table 1; ATP 10 μM; read-out: PI3K-γ/nM (IC50 of inhibitory activity against PI3K kinase)
# T3 construct: purchased Invitrogen PV4786
# Method: The PI3K kinase used in the experiment: p110α/p85α (Invitrogen PV4788), p110β/p85α (Millipore 14-603), p110δ/p85α (Millipore 14-604M), and p110γ (Invitrogen PV4786).
# as §1
# as §2, with “duplicate. 2.5× buffer was prepared and 1 μL of DTT (Millipore 20-265) was added to each 800 μL of 2.5× buffer.” for “duplicate.”
# [3] = target: T4, PI3K-δ kinase (p110δ/p85α) (Homo sapiens, UniProt O00329); assay: as above; assay type: biochemical; details: Table 1; ATP 10 μM; read-out: PI3K-δ/nM (IC50 of inhibitory activity against PI3K kinase)
# T4 construct: purchased Millipore 14-604M
# Method: as §1, §2
# [4] = Table 2, read-out: PI3K-α/nM (IC50 of inhibitory activity against PI3K-α kinase)
# [5] = Table 1, read-out: PI3K-α/nM (IC50 of inhibitory activity against PI3K kinase)
# T2 sequence (P42338 whole entry): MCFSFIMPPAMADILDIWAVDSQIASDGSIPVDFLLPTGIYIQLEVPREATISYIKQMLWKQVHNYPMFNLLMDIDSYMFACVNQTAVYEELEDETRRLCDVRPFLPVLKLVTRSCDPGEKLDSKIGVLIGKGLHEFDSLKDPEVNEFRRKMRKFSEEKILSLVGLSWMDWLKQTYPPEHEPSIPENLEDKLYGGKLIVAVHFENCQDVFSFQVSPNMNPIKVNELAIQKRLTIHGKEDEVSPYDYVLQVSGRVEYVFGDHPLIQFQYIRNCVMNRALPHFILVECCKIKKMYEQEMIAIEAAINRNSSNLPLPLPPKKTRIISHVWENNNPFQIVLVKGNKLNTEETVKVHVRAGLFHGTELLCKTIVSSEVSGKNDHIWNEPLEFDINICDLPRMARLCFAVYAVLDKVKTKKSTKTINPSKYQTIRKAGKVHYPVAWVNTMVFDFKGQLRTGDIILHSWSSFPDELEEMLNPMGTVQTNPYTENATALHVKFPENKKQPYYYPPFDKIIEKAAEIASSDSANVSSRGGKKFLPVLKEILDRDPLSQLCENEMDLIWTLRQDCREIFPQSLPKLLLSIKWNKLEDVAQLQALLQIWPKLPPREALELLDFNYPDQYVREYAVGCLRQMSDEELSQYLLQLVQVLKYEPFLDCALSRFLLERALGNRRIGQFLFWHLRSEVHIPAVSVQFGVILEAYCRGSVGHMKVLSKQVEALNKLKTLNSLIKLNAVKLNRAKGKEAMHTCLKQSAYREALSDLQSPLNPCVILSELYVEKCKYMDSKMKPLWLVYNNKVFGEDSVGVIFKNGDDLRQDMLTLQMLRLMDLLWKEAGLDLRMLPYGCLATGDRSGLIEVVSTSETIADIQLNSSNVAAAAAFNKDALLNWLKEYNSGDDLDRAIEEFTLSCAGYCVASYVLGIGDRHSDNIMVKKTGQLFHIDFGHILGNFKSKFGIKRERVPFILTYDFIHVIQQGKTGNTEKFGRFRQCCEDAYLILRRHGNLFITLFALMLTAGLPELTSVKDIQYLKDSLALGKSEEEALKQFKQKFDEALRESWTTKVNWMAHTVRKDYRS
# T2 sequence (P27986 whole entry partner): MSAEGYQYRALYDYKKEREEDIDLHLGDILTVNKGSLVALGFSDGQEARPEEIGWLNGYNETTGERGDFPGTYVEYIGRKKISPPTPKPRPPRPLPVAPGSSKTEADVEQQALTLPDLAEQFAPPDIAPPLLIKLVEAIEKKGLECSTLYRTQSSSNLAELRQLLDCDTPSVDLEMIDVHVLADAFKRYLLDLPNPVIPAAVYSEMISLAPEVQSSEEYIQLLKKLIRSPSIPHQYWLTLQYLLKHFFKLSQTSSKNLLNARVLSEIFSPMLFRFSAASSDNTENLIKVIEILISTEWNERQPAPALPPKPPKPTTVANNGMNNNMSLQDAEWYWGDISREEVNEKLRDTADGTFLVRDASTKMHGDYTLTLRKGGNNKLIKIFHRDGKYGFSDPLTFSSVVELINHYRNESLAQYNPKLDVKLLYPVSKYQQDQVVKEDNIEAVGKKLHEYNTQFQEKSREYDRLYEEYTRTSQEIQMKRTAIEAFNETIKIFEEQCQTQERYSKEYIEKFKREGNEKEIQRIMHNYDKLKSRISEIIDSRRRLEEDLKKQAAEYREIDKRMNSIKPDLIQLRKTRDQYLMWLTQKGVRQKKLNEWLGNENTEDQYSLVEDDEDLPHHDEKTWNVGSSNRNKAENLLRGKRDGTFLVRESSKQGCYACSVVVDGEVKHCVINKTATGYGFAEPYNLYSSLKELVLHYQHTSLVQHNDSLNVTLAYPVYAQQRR
# T1 sequence (P42336 whole entry): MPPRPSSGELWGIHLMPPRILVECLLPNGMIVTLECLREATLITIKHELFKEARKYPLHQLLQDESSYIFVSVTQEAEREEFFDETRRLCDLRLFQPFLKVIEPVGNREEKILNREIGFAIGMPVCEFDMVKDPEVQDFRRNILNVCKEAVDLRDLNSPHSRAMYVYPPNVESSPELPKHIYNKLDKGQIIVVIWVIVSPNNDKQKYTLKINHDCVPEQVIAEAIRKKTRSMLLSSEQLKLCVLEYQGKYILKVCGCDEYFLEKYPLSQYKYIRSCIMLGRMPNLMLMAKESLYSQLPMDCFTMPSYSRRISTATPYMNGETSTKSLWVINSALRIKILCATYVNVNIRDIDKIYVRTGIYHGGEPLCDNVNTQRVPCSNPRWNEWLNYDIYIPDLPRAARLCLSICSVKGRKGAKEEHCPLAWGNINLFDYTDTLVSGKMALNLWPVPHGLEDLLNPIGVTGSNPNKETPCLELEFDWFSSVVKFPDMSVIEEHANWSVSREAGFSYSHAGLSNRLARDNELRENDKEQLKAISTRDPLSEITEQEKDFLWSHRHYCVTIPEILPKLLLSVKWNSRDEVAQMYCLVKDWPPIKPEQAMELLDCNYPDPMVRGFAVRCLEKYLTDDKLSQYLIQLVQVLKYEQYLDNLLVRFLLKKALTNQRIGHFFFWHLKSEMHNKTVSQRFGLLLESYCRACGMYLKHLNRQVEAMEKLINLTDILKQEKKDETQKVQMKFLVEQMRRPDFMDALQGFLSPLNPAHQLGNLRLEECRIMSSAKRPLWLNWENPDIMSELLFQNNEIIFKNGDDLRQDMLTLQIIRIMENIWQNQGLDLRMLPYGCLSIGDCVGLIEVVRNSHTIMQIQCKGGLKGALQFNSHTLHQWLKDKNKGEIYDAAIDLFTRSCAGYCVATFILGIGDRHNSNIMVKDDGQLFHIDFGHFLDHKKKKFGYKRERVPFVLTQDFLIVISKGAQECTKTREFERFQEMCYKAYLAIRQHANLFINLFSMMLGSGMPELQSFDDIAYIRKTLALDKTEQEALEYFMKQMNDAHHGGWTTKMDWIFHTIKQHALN
# T1 sequence (P27986 whole entry partner): as the sequence (P27986 whole entry partner) above
# T4 sequence (O00329 whole entry): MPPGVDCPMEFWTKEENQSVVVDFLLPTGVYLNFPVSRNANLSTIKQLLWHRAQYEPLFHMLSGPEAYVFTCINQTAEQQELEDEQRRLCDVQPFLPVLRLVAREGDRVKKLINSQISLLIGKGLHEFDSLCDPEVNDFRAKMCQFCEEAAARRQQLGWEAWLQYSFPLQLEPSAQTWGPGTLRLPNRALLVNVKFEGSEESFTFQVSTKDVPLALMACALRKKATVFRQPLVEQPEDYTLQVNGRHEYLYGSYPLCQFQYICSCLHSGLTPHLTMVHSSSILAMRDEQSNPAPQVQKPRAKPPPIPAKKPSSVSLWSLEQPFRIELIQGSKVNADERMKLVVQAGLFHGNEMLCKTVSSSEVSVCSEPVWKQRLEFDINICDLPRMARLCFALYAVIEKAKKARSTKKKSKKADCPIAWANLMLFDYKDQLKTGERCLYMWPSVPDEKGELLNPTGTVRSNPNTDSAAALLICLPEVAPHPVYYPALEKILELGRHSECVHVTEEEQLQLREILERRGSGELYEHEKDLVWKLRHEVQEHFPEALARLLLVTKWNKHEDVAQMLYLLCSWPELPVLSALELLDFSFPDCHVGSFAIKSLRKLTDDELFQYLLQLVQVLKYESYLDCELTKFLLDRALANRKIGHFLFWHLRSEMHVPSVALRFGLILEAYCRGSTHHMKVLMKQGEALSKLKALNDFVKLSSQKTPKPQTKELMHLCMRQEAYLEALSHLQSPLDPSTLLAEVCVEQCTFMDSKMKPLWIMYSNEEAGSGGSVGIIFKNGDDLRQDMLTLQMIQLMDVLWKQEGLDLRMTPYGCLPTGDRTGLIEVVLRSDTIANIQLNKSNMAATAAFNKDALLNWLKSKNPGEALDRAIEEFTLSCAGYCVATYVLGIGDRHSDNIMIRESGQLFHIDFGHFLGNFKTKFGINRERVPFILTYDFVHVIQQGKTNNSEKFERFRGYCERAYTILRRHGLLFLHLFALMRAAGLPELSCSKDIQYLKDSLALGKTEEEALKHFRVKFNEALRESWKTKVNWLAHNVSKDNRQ
# T4 sequence (P27986 whole entry partner): as the sequence (P27986 whole entry partner) above
# T3 sequence (P48736 whole entry): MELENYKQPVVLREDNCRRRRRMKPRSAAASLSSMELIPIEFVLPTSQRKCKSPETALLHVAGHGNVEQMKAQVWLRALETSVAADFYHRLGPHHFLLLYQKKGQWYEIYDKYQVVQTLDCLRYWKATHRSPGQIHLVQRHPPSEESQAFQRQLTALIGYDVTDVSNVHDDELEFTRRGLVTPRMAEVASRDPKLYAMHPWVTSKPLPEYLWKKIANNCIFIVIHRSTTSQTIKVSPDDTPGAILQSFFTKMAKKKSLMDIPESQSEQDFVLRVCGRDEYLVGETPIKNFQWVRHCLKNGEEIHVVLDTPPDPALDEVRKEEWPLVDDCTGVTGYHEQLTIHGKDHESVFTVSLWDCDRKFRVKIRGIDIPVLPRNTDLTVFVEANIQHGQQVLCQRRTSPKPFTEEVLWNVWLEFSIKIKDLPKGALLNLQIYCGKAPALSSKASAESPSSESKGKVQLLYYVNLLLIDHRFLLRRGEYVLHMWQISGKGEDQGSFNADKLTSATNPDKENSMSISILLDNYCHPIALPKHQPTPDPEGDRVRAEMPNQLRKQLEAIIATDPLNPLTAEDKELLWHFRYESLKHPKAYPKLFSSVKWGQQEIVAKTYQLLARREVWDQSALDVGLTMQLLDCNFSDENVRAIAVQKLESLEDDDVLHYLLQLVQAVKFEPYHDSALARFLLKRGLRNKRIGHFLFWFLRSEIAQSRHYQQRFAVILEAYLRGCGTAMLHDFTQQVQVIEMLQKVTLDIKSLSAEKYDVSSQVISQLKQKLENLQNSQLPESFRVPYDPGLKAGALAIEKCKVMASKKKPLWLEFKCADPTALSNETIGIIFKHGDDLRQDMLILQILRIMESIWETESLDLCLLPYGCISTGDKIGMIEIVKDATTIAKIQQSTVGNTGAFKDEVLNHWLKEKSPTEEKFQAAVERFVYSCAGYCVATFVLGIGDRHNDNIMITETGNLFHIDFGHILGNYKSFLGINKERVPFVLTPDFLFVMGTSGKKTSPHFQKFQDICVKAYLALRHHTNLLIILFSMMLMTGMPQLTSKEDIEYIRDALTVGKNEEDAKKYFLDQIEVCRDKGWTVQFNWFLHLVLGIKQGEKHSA
smiles,measurement,setting,value
"CC(C)(c1cc(-c2cnc(N)cc2Cl)nc(N2CCOCC2)n1)S(=O)(=O)c1ccccc1 [Compound S-55, 4-chloro-5-(2-morpholinyl-6-(2-(phenylsulfonyl)propan-2-yl)pyrimidin-4-yl)pyridin-2-amine]",IC50,[1]; [4],40 nM
CC(C)(c1cc(-c2cnc(N)cc2C(F)(F)F)nc(N2CCOCC2)n1)S(=O)(=O)c1ccccc1Cl [Compound S-80],IC50,MCF-7 cells,474 nM
same,IC50,[1]; [4],31 nM
CC(C)(c1cc(-c2cnc(N)cc2C(F)(F)F)nc(N2CCOCC2)n1)S(=O)(=O)c1cccc(F)c1 [Compound S-60],IC50,[1]; [4],35 nM
CS(=O)(=O)NC1(c2cc(-c3cnc(N)cc3Cl)nc(N3CCOCC3)n2)CC1 [Compound S-90],IC50,[1]; [4],75 nM
CC(C)(c1cc(-c2cnc(N)cc2C(F)(F)F)nc(N2CCOCC2)n1)S(=O)(=O)c1ccccc1F [Compound S-65],IC50,MCF-7 cells,469 nM
same,IC50,[2],1220 nM
same,IC50,[1]; [5],22 nM
same,IC50,[1]; [4],22 nM
same,IC50,T47D cells,280 nM
Nc1cc(C(F)(F)F)c(-c2cc(C3(S(=O)(=O)c4ccc(F)c(F)c4)CC3)nc(N3CCOCC3)n2)cn1 [Compound S-77],IC50,[1]; [4],62 nM
CC(C)(c1cc(-c2cnc(N)cc2C(F)(F)F)nc(N2CCOCC2)n1)S(=O)(=O)c1ccc(F)cc1 [Compound S-69],IC50,[1]; [4],59 nM
C[C@H]1COCCN1c1nc(-c2cnc(N)cc2C(F)(F)F)cc(C2(S(C)(=O)=O)CCCC2)n1 [Compound S-42],IC50,PI3K-γ kinase (p110γ),718 nM
same,IC50,MCF-7 cells,159 nM
same,IC50,[3],324 nM
same,IC50,[2],1210 nM
same,IC50,T47D cells,139 nM
CCS(=O)(=O)C1(c2cc(-c3cnc(N)cc3C(F)(F)F)nc(N3CCOCC3)n2)CC1 [Compound S-28],IC50,PI3K-γ kinase (p110γ),765 nM
same,IC50,[3],78 nM
same,IC50,[2],121 nM
"CNC1(c2cc(-c3cnc(N)cc3C(F)(F)F)nc(N3CCOC[C@@H]3C)n2)CCC1 [Compound S-27, (S)-5-(6-(1-(methylamino)cyclobutyl)-2-(3-methylmorpholino)pyrimidin-4-yl)-4-(trifluoromethyl)pyridin-2-amine]",IC50,[1]; [4],285 nM
Nc1cc(Cl)c(-c2cc(C3(S(=O)(=O)C4CC4)CC3)nc(N3CCOCC3)n2)cn1 [Compound S-87],IC50,PI3K-γ kinase (p110γ),134 nM
same,IC50,MCF-7 cells,170 nM
same,IC50,[3],117 nM
same,IC50,[2],386 nM
same,IC50,[1]; [5],14 nM
same,IC50,[1]; [4],14 nM
same,IC50,T47D cells,101 nM
"CS(=O)(=O)C1(c2cc(-c3ccc(N)cc3C(F)(F)F)nc(N3CCOCC3)n2)CC1 [Comparative compound 3, 4-(6-(1-(methylsulfonyl)cyclopropyl)-2-morpholinopyrimidin-4-yl)-3-(trifluoromethyl)aniline, reference compound]",IC50,[1]; [4],> 1000 nM
C[C@H]1COCCN1c1nc(-c2cnc(N)cc2Cl)cc(C(C)(C)O)n1 [Compound S-73],IC50,PI3K-γ kinase (p110γ),623 nM
same,IC50,MCF-7 cells,176 nM
same,IC50,[3],514 nM
same,IC50,[2],396 nM
same,IC50,[1]; [5],14 nM
same,IC50,[1]; [4],14 nM
CC(C)(c1cc(-c2cnc(N)cc2C(F)(F)F)nc(N2CCOCC2)n1)S(=O)(=O)c1ccc(F)c(F)c1 [Compound S-79],IC50,[1]; [4],55 nM
C[C@@H]1COCCN1c1nc(-c2cnc(N)cc2C(F)(F)F)cc(C(C)(C)O)n1 [Compound S-72],IC50,PI3K-γ kinase (p110γ),1150 nM
same,IC50,[3],370 nM
same,IC50,[2],797 nM
same,IC50,[1]; [5],18 nM
same,IC50,[1]; [4],18 nM
"Cc1cnc(C2(c3cc(-c4cnc(N)cc4C(F)(F)F)nc(N4CCOCC4)n3)CC2)o1 [Compound S-61, 5-(6-(1-(5-methyloxazol-2-yl)cyclopropyl)-2-morpholinopyrimidin-4-yl)-4-(trifluoromethyl)pyridin-2-amine]",IC50,[1]; [4],195 nM
Nc1cc(C(F)(F)F)c(-c2cc(C3(S(=O)(=O)c4ccccc4Cl)CC3)nc(N3CCOCC3)n2)cn1 [Compound S-78],IC50,PI3K-γ kinase (p110γ),925 nM
same,IC50,MCF-7 cells,318 nM
same,IC50,[3],85 nM
same,IC50,[2],419 nM
same,IC50,[1]; [5],7 nM
same,IC50,[1]; [4],7 nM
same,IC50,T47D cells,206 nM
"CS(=O)(=O)Cc1cc(-c2cnc(N)cc2C(F)(F)F)nc(N2CCOCC2)n1 [Compound S-62, 5-(6-(methylsulfonylmethyl)-2-morpholinopyrimidin-4-yl)-4-(trifluoromethyl)pyridin-2-amine]",IC50,[1]; [4],189 nM
CC(C)(c1cc(-c2cnc(N)cc2Cl)nc(N2CCOCC2)n1)S(=O)(=O)c1cccc(F)c1 [Compound S-70],IC50,[2],525 nM
same,IC50,[1]; [5],22 nM
same,IC50,[1]; [4],22 nM
same,IC50,T47D cells,219 nM
COC(C)(C)c1cc(-c2cnc(N)cc2C(F)(F)F)nc(N2CCOC[C@H]2C)n1 [Compound S-74],IC50,PI3K-γ kinase (p110γ),2500 nM
same,IC50,[3],1010 nM
same,IC50,[2],2090 nM
same,IC50,[1]; [5],28 nM
same,IC50,[1]; [4],28 nM
"CS(=O)(=O)C1(c2cc(-c3cnc(N)cc3C(F)(F)F)nc(N3CCOCC3)n2)CC1 [Compound S-1, 5-(6-(1-(methylsulfonyl)cyclopropyl)-2-morpholinopyrimidin-4-yl)-4-(trifluoromethyl)pyridin-2-amine]",IC50,PI3K-γ kinase (p110γ),288 nM
same,IC50,[1]; [5],16 nM
COc1nc(N)ncc1-c1cc(C2(S(C)(=O)=O)CCC2)nc(N2CCOC[C@@H]2C)n1 [Compound S-43],IC50,T47D cells,317 nM
CC(C)(c1cc(-c2cnc(N)cc2C(F)(F)F)nc(N2CCOCC2)n1)S(C)(=O)=O [Compound S-16],IC50,PI3K-γ kinase (p110γ),138 nM
same,IC50,[3],244 nM
same,IC50,[2],196 nM

# — patent US10227324B2 (Shanghai Haiyan Pharmaceutical Technology Co., Ltd., priority 2014, dated 2019)
